Laboratory results published in patent US11530213B2, “Naphthyridinone derivatives and their use in the treatment of arrhythmia” (NOVARTIS AG, priority 2016, dated 2022).

These compounds were tested against GIRK1/4 (Homo sapiens (Human), UniProt P48544+P48549) (assay: GIRK1/4 inhibition, Quattro (IonWorks) population patch clamp, inward potassium current in GIRK 1/4 HEK293 stable cells (test assay No. 1)). Conditions: percentage of current inhibition normalized to DMSO-only control.
Assay type: cell-based
Description: The activity of a compound according to the present invention can be assessed by the following in vitro method. • 1. Buffers: • a. External buffer: 10 mM NaCl, 50 mM Na Gluconate, 80 mM K Gluconate, 1.8 mM CaCl2, 1 mM MgCl2, 10 mM HEPES, 10 mM Glucose, pH 7.4; osmolality […]. • b. Internal buffer: 30 mM KCl, 100 mM K Gluconate, 1 mM MgCl2, 10 mM HEPES, 1 mM EGTA, 10 mM NaCl, pH 7.2; osmolality […]. • 2. Compounds: • a. Prepare seven-fold compound dilution series (10 mM to 20 uM) in 100% DMSO, in 384-well polypropylene plates. • b. Propafenone (Sigma Aldrich, catalog number P4670) is used as a positive control and DMSO for neutral control • c. Resuspend 1 ul of compounds in DMSO into 65.7 ul external buffer in 384-well polypropylene plate and load into Plate 1 section of Molecular Devices Quattro • 3. Quattro setup: • a. Load 384-well Population Patch Plate (Molecular Devices #9000-0902) into Quattro • b. Fill Quattro F-soak trough with 20% DMSO and 50% EtOH • c. Fill Quattro buffer trough with external buffer • d. Attach internal buffer flask to Quattro internal buffer tubing • e. Attach PBS (Phosphate Buffered Saline, minus Ca^++ and Mg^++, pH7.4) bottle to F-head & E-head wash on Quattro • 4. Antibiotic: • a. Resuspend 5.6 mg amphotericin B (Sigma Aldrich, catalog number A2411) in 175 ul DMSO • b. Add the resulting solution to 50 ml internal buffer, mix and attach to antibiotic tubing port on Quattro • 5. Cells: • a. Use GIRK 1/4 HEK293 stable cells (obtained from ChanTest, 14656 Neo Parkway, Cleveland, Ohio 44128) grown to […] confluency in the following cell culture medium: DMEM containing 10% (v/v) Fetal Bovine Serum, Penicillin/Streptomycin (at “1×” concentration from a 100× stock), 0.5 mg/ml G418 and 0.1 mg/ml Zeocin. • b. Wash cells with PBS (minus Ca^++ and Mg^++), Detach cells using Detachin (Genlantis, 11011 Torreyana, San Diego, Calif. 92121), and resuspend in external buffer (5 ml final volume at 2.0-2.1×10^6 cells/ml) • c. Load into cell trough of Quattro • 6. Assay Protocol: • Quattro is controlled using IonWorks v2 software to perform the following steps: • a. Add 3.5 ul cells plus 3.5 ul external buffer to wells of Quattro Patch Plate • b. Circulate amphotericin B and internal buffer onto cells • c. Apply the following voltage protocol: Pulse 1: 15 mV for 300 milliseconds (ms), followed by Pulse 2: −120 mV for 400 ms, then Pulse 3: −15 mV for 400 ms, and finally Pulse 4: −120 mV to 40 mV over 500 ms (this is a voltage ramp). • d. Measure magnitude of inward potassium current at time point between 1200-1220 ms from start of Pulse 1 (i.e. during the voltage ramp phase). • e. Add 3.5 ul of diluted compounds (or DMSO) to wells and repeat steps c-d (final compound concentrations are 50 uM to 0.1 uM, for potent compounds 0.5 uM to 0.01 uM and each concentration is tested in quadruplicate—i.e. in 4 separate wells). • f. The difference between current magnitude pre vs. post-compound gives a measure of GIRK1/4 inhibition. • 7. Data analysis:
IC50 values are calculated by plotting the percentage of current inhibition (normalized to the DMSO-only control) as a function of compound concentration using standard data analysis software.

Sequence of GIRK1/4 (P48549 whole entry): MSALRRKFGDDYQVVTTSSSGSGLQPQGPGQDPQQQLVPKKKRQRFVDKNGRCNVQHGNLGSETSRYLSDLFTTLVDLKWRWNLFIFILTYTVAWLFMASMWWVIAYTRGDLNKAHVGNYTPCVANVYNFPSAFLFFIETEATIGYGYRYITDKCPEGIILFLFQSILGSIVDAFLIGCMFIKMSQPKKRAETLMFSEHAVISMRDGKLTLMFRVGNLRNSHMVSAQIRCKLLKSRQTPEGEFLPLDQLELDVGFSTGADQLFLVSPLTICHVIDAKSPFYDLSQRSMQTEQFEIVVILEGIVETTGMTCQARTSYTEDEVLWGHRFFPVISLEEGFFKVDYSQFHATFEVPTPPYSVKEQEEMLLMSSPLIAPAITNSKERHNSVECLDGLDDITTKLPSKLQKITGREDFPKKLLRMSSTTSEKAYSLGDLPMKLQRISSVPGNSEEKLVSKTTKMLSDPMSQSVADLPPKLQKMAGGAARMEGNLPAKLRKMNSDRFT
Sequence of GIRK1/4 (P48544 whole entry): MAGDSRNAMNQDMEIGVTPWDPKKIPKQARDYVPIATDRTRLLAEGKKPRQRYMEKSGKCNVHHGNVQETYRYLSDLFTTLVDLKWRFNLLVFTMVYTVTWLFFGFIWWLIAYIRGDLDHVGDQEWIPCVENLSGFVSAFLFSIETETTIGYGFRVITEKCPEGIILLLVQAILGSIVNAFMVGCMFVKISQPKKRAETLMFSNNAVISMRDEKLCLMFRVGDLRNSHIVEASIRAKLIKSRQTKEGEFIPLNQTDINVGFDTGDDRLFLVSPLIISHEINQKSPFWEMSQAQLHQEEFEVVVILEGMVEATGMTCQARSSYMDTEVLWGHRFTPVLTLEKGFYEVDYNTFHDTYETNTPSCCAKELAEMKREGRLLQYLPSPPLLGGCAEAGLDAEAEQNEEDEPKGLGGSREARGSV

Structure (SMILES) | IC50
Cc1cc(=O)c2c(OCC(O)COCC(O)CO)ncc(Cl)c2n1-c1c(Cl)cccc1Cl (stereo not shown) [Example 20, 8-chloro-1-(2,6-dichlorophenyl)-5-(3-(2,3-dihydroxypropoxy)-2-hydroxypropoxy)-2-methyl-1,6-naphthyridin-4(1H)-one] | 173 nM
Cc1cc(=O)c2c(OCCOCCOCCOCCO)ncc(Cl)c2n1-c1c(Cl)cccc1C#N [Example 21, 3-chloro-2-(8-chloro-5-(2-(2-(2-(2-hydroxyethoxy)ethoxy)ethoxy)ethoxy)-2-methyl-4-oxo-1,6-naphthyridin-1(4H)-yl)benzonitrile] | 154 nM
Cc1cc(=O)c2c(NCCNS(C)(=O)=O)cncc2n1-c1c(Cl)cc(C#N)cc1Cl [Example 22, N-(2-((1-(2,6-dichloro-4-cyanophenyl)-2-methyl-4-oxo-1,4-dihydro-1,7-naphthyridin-5-yl)amino)ethyl)methanesulfonamide] | 148 nM
Cc1cc(=O)c2c(OCCOCCOCCOCCO)ncc(Cl)c2n1-c1c(Cl)cc(F)cc1C#N [Example 23, 3-chloro-2-(8-chloro-5-(2-(2-(2-(2-hydroxyethoxy)ethoxy)ethoxy)ethoxy)-2-methyl-4-oxo-1,6-naphthyridin-1(4H)-yl)-5-fluorobenzonitrile] | 344 nM
Cc1cc(=O)c2c(OCCOCCOCCOCCOCCOCCO)ncc(Cl)c2n1-c1c(Cl)cc(F)cc1Cl [Example 24, 8-chloro-1-(2,6-dichloro-4-fluorophenyl)-5-((17-hydroxy-3,6,9,12,15-pentaoxaheptadecyl)oxy)-2-methyl-1,6-naphthyridin-4(1H)-one] | 253 nM
Cc1cc(=O)c2c(N3CCN(CCO)CC3)ncc(Cl)c2n1-c1c(Cl)cc(C#N)cc1Cl [Example 25, 3,5-dichloro-4-(8-chloro-5-(4-(2-hydroxyethyl)piperazin-1-yl)-2-methyl-4-oxo-1,6-naphthyridin-1(4H)-yl)benzonitrile] | 146 nM
Cc1cc(=O)c2c(OCC(O)C(O)CO)ncc(Cl)c2n1-c1c(Cl)cccc1Cl (stereo not shown) [Example 26, 8-chloro-1-(2,6-dichlorophenyl)-2-methyl-5-(2,3,4-trihydroxybutoxy)-1,6-naphthyridin-4(1H)-one] | 31 nM
Cc1cc(=O)c2c(NCCO)cncc2n1-c1c(Cl)cc(C#N)cc1Cl [Example 27, 3,5-dichloro-4-(5-((2-hydroxyethyl)amino)-2-methyl-4-oxo-1,7-naphthyridin-1(4H)-yl)benzonitrile] | 150 nM
Cc1cc(=O)c2c(N3CC(O)C3)cncc2n1-c1c(Cl)cc(C#N)cc1Cl [Example 29, 3,5-dichloro-4-(5-(3-hydroxyazetidin-1-yl)-2-methyl-4-oxo-1,7-naphthyridin-1(4H)-yl)benzonitrile] | 505 nM
Cc1cc(=O)c2c(OCCOCCOCCOCCO)ncc(Cl)c2n1-c1c(Cl)cccc1Cl [Example 30, 8-chloro-1-(2,6-dichlorophenyl)-5-(2-(2-(2-(2-hydroxyethoxy)ethoxy)ethoxy)ethoxy)-2-methyl-1,6-naphthyridin-4(1H)-one] | 25 nM
Cc1cc(=O)c2c(OCCOCCOCCOCCO)ncc(Cl)c2n1-c1c(Cl)cc(F)cc1Cl [Example 32, 8-chloro-1-(2,6-dichloro-4-fluorophenyl)-5-(2-(2-(2-(2-hydroxyethoxy)ethoxy)ethoxy)ethoxy)-2-methyl-1,6-naphthyridin-4(1H)-one] | 33 nM
Cc1cc(=O)c2c(N3C[C@@H](O)[C@@H](O)C3)ncc(Cl)c2n1-c1c(Cl)cccc1Cl [Example 33, 8-chloro-1-(2,6-dichlorophenyl)-5-((3R,4S)-3,4-dihydroxypyrrolidin-1-yl)-2-methyl-1,6-naphthyridin-4(1H)-one] | 100 nM
Cc1cc(=O)c2c(OCC(O)CO)ncc(Cl)c2n1-c1c(Cl)cccc1C#N (stereo not shown) [Example 34, 3-chloro-2-(8-chloro-5-(2,3-dihydroxypropoxy)-2-methyl-4-oxo-1,6-naphthyridin-1(4H)-yl)benzonitrile] | 240 nM
